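Compound exposure: 48 hours, 5 concentrations, 96-well plates. GI50 = concentration required for 50% inhibition of growth.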 Activity calls are given as the source filed them. No stated cut-off is given here; in the data, active = GI50 up to about 1.1 µM and inactive = higher.
Key:
Assay in all cases: NCI-60 cell line screen, 48 h
[1] = tested on: A498
[2] = tested on: HL-60
[3] = tested on: SW-620
[4] = tested on: SNB-75
[5] = tested on: OVCAR-3
[6] = tested on: U-251
[7] = tested on: SK-OV-3
[8] = tested on: SF-539
[9] = tested on: ACHN
[10] = tested on: HOP-62
[11] = tested on: A549
[12] = tested on: NCI/ADR-RES
[13] = tested on: MDA-MB-435
[14] = tested on: T47D
[15] = tested on: NCI-H522
[16] = tested on: LOX IMVI
[17] = tested on: CCRF-CEM
[18] = tested on: K562
[19] = tested on: SN12C

Compound | GI50 [1] | GI50 [2] | GI50 [3] | GI50 [4] | GI50 [5] | GI50 [6] | GI50 [7] | GI50 [8] | GI50 [9] | GI50 [10] | GI50 [11] | GI50 [12] | GI50 [13] | GI50 [14] | GI50 [15] | GI50 [16] | GI50 [17] | GI50 [18] | GI50 [19]
O=C(NC1(C(=O)NNc2nnc(-c3ccccc3)c(-c3ccccc3)n2)C(c2ccccc2)C(c2ccccc2)=NN1c1ccccc1)c1ccccc1 (configuration not stated) | > 100 µM (inactive) | 46.8 µM (inactive) | > 100 µM (inactive) | 55.8 µM (inactive) | > 100 µM (inactive) | > 100 µM (inactive) | > 100 µM (inactive) | > 100 µM (inactive) | > 100 µM (inactive) | > 100 µM (inactive) | > 100 µM (inactive) | > 100 µM (inactive) | > 100 µM (inactive) | > 100 µM (inactive) | > 100 µM (inactive) | – | – | – | –
Nc1nc(Nc2ccc(Cl)cc2)sc1C(=O)c1cc2ccccc2oc1=O | 19.2 µM (inactive) | 33 µM (inactive) | 54.1 µM (inactive) | 7.55 µM (inactive) | 4.84 µM (inactive) | 18.8 µM (inactive) | 20.7 µM (inactive) | 71.6 µM (inactive) | > 100 µM (inactive) | 12.9 µM (inactive) | 98.9 µM (inactive) | 38.5 µM (inactive) | 23.7 µM (inactive) | 27.7 µM (inactive) | – | 23.8 µM (inactive) | 7.38 µM (inactive) | 33.8 µM (inactive) | 14.2 µM (inactive)
c1ccc(C[n+]2cccc(-c3cc4ccccc4[nH]3)c2)cc1 | 39.5 µM (inactive) | 17.6 µM (inactive) | 72.6 µM (inactive) | 29.4 µM (inactive) | 31 µM (inactive) | 34.5 µM (inactive) | > 100 µM (inactive) | – | > 100 µM (inactive) | 31.8 µM (inactive) | 91.2 µM (inactive) | > 100 µM (inactive) | 18.5 µM (inactive) | 23.6 µM (inactive) | 16.4 µM (inactive) | 19.1 µM (inactive) | 19.9 µM (inactive) | 21.6 µM (inactive) | 15.4 µM (inactive)
N=C(N)N/N=C/c1c(-c2ccc(Cl)cc2)nc2sc(Cl)cn12 | 1.74 µM (inactive) | 0.201 µM (active) | 1.09 µM (active) | 1.41 µM (inactive) | 1.55 µM (inactive) | 0.658 µM (active) | 1.93 µM (inactive) | 1.27 µM (inactive) | 3.85 µM (inactive) | 1.85 µM (inactive) | 1.7 µM (inactive) | 1.79 µM (inactive) | 1.3 µM (inactive) | 1.12 µM (inactive) | 2.04 µM (inactive) | 0.169 µM (active) | – | – | 1.77 µM (inactive)
O=C(NC(CO)Cc1ccc(Oc2cc(CC(CO)NC(=O)OCc3ccccc3)ccc2OC(=O)OCc2ccccc2)cc1)OCc1ccccc1 (configuration not stated) | 14.7 µM (inactive) | 9.82 µM (inactive) | 26.3 µM (inactive) | 16.5 µM (inactive) | 19.5 µM (inactive) | – | 21.3 µM (inactive) | 20.1 µM (inactive) | 19.9 µM (inactive) | 20.2 µM (inactive) | 11.6 µM (inactive) | 28.4 µM (inactive) | 16.6 µM (inactive) | 5.18 µM (inactive) | – | 12.1 µM (inactive) | 4.28 µM (inactive) | 10.9 µM (inactive) | 19.1 µM (inactive)
CCOC(=O)/C=C(\C(=O)OCC)n1cc(Cl)c(=O)n(CC(=O)OCC)c1=O | 19.2 µM (inactive) | 2.81 µM (inactive) | 1.91 µM (inactive) | 18.7 µM (inactive) | 2.82 µM (inactive) | 15.6 µM (inactive) | 19.5 µM (inactive) | 14 µM (inactive) | 1.63 µM (inactive) | 18 µM (inactive) | 19.9 µM (inactive) | 27.6 µM (inactive) | 16.9 µM (inactive) | 1.66 µM (inactive) | 0.78 µM (active) | 4.99 µM (inactive) | 5.09 µM (inactive) | – | 14.5 µM (inactive)
N=C(N)Nc1ccc(CC(N)C(=O)NCC(=O)C(CC(=O)O)c2ncc(NC(=O)C(F)(F)F)o2)cc1 (configuration not stated) | > 25 µM (inactive) | > 25 µM (inactive) | > 25 µM (inactive) | > 25 µM (inactive) | > 25 µM (inactive) | > 25 µM (inactive) | > 25 µM (inactive) | > 25 µM (inactive) | > 25 µM (inactive) | > 25 µM (inactive) | > 25 µM (inactive) | > 25 µM (inactive) | > 25 µM (inactive) | > 25 µM (inactive) | > 25 µM (inactive) | > 25 µM (inactive) | > 25 µM (inactive) | – | 9.27 µM (inactive)
Nc1nc(Nc2cc(F)c(Cl)c(F)c2)cc(=O)[nH]1 | 94.8 µM (inactive) | 44.3 µM (inactive) | 91 µM (inactive) | 30.7 µM (inactive) | > 100 µM (inactive) | 81.7 µM (inactive) | 68.1 µM (inactive) | > 100 µM (inactive) | 84.7 µM (inactive) | > 100 µM (inactive) | 76.4 µM (inactive) | > 100 µM (inactive) | 44.4 µM (inactive) | 77.6 µM (inactive) | 28.4 µM (inactive) | > 100 µM (inactive) | 66.8 µM (inactive) | – | > 100 µM (inactive)
COc1ccc(N)c(C(O)CCNC(C)=O)c1 (configuration not stated) | > 100 µM (inactive) | > 100 µM (inactive) | > 100 µM (inactive) | > 100 µM (inactive) | > 100 µM (inactive) | > 100 µM (inactive) | > 100 µM (inactive) | > 100 µM (inactive) | > 100 µM (inactive) | – | > 100 µM (inactive) | > 100 µM (inactive) | > 100 µM (inactive) | > 100 µM (inactive) | > 100 µM (inactive) | > 100 µM (inactive) | > 100 µM (inactive) | – | > 100 µM (inactive)
CC1(C)OCC(C2CCC3(C)C4=CCC5C(C)(C)C(O)CCC5(C)C4CCC23C)CC(O)C1O (configuration not stated) | 24.7 µM (inactive) | 12.3 µM (inactive) | 17.8 µM (inactive) | 15.1 µM (inactive) | 14.6 µM (inactive) | 15.4 µM (inactive) | 18.3 µM (inactive) | 18.8 µM (inactive) | 20.2 µM (inactive) | – | 16.5 µM (inactive) | 20.3 µM (inactive) | 16.4 µM (inactive) | 8.61 µM (inactive) | 20 µM (inactive) | 17.1 µM (inactive) | 25.8 µM (inactive) | 4.22 µM (inactive) | 18.7 µM (inactive)
C1=C\SS/C=C\SS/C=C\SS/C=C\SS/1 | > 100 µM (inactive) | 24.9 µM (inactive) | 51.4 µM (inactive) | – | – | 81.8 µM (inactive) | > 100 µM (inactive) | – | > 100 µM (inactive) | 69.7 µM (inactive) | > 100 µM (inactive) | > 100 µM (inactive) | > 100 µM (inactive) | > 100 µM (inactive) | 15.2 µM (inactive) | 42.4 µM (inactive) | 10.2 µM (inactive) | 27.9 µM (inactive) | > 100 µM (inactive)
Nn1c(=O)[nH]c2ncn(Cc3ccccc3)c2c1=O | > 100 µM (inactive) | > 100 µM (inactive) | > 100 µM (inactive) | > 100 µM (inactive) | > 100 µM (inactive) | > 100 µM (inactive) | > 100 µM (inactive) | > 100 µM (inactive) | > 100 µM (inactive) | > 100 µM (inactive) | > 100 µM (inactive) | > 100 µM (inactive) | > 100 µM (inactive) | > 100 µM (inactive) | > 100 µM (inactive) | – | > 100 µM (inactive) | > 100 µM (inactive) | > 100 µM (inactive)
COCCc1c(C)c(C#N)c2n(C)c3ccccc3n2c1=O | > 10 µM (inactive) | 0.00575 µM (active) | > 10 µM (inactive) | > 10 µM (inactive) | > 10 µM (inactive) | > 10 µM (inactive) | > 10 µM (inactive) | > 10 µM (inactive) | > 10 µM (inactive) | > 10 µM (inactive) | > 10 µM (inactive) | > 10 µM (inactive) | > 10 µM (inactive) | > 10 µM (inactive) | > 10 µM (inactive) | > 10 µM (inactive) | – | 0.566 µM (active) | > 10 µM (inactive)
OCC(O)COCn1cc(Cn2ncc3c(SCc4ccccc4)ncnc32)nn1 (configuration not stated) | > 100 µM (inactive) | > 100 µM (inactive) | > 100 µM (inactive) | – | > 100 µM (inactive) | > 100 µM (inactive) | > 100 µM (inactive) | > 100 µM (inactive) | > 100 µM (inactive) | > 100 µM (inactive) | > 100 µM (inactive) | > 100 µM (inactive) | > 100 µM (inactive) | > 100 µM (inactive) | 27.2 µM (inactive) | > 100 µM (inactive) | > 100 µM (inactive) | > 100 µM (inactive) | > 100 µM (inactive)
CCOc1ccccc1/N=N/C1C(=O)N(C(=O)CC(=O)Nc2ccccc2C)N=C1C (configuration not stated) | 29.2 µM (inactive) | > 100 µM (inactive) | > 100 µM (inactive) | 24.2 µM (inactive) | 87.9 µM (inactive) | 19.4 µM (inactive) | 19.7 µM (inactive) | 56 µM (inactive) | > 100 µM (inactive) | 19.9 µM (inactive) | 89.7 µM (inactive) | 54.6 µM (inactive) | > 100 µM (inactive) | 51.9 µM (inactive) | 61.2 µM (inactive) | > 100 µM (inactive) | > 100 µM (inactive) | – | > 100 µM (inactive)
